The source of these data is US20240352072A1, “NOVEL COMPOSITIONS AND METHODS FOR TREATING CORONAVIRUS INFECTIONS” (priority 2021, published 2024).

Where two headings read alike, the source gives them in different places. Where no end group is shown, it is not given here. [ ]: non-standard residue; d: D form. The star is where a group is joined. Lys(Me2) = CN(C)CCCC[C@H](N)C(=O)O; Myristyl = CCCCCCCCCCCCCC*

In one data set the test system is ACE2, LSD1. Format: cell-based. The settings on record: Caco-2 cells.
The subject of data set [1] is ACE2, SARS-CoV-2 nucleocapsid and Spike proteins. Format: cell-based.
The subject of a further data set is ACE2-importin complex. Format: binding.
The target in a further data set is T1, ACE2unmod and IMPα1 (Homo sapiens, UniProt P52292).
T1 construct: endogenous in cells; host or cells: H1299
Format: cell-based. The arrangement: dose or concentration left out as unconfirmed. The settings on record: H1299 cells.

The subject of data set [2] is SARS-CoV-2. The arrangement: species or system golden Syrian Hamsters. The settings on record: hamster, in vivo.
Data set [3] concerns SARS-CoV-2. Set-up: species or system golden Syrian Hamsters. The settings on record: hamster, in vivo. The source holds these as a separate data set.
The subject of data set [4] is SARS-CoV-2 Spike protein. The arrangement: species or system golden Syrian Hamsters. The settings on record: hamster, in vivo.
For data set [5], the system named is SARS-Cov-2 induced lung pathology. Set-up: species or system golden Syrian Hamsters. The settings on record: hamster, in vivo.
The next data set concerns perforin and CD3. Format: in vivo, golden Syrian Hamsters. The settings on record: hamster, IP or IV routes.
Data set [6] in a line: Hamster tolerance (animal safety) study. Format: in vivo, golden Syrian Hamsters. The settings on record: escalating IP doses. How it is done:
Female golden Syrian Hamsters (6-8 weeks) were obtained from Janiver Labs (Le Genest-Saint-Isle, France) and studies conducted by Oncodesign® Biotechnology (Dijon Cedex, France). For tolerance experiments, animals (3 per group) received escalating doses of P604 ACE2 peptide inhibitor or ACE2i peptide via intraperitoneal injection. Doses were escalated daily (day 1: 25 mg/kg, day 2: 50 mg/kg, day 3: 100 mg/kg) and animals monitored prior to culling on day 4. Animal viability, behaviour and rectal temperature were recorded every 2 hours over a 6 hour period post-administration and body weights were measured daily. For P604 ACE2 peptide inhibitor efficacy studies, animals (8 per group) were treated with vehicle (IP, daily day 0, 1 and 2) (Sodium chloride 0.9%, Osalia, Paris, France) or P604 ACE2 peptide inhibitor over a 2-day period via intravenous (IV, 15 mg/kg, day 0 once and day 1 twice, 8 hours apart) or intraperitoneal (IP, 100 mg/kg, daily Day 0, 1, 2) injection. For P604 ACE2 peptide inhibitor efficacy studies, animals were treated with vehicle or P604 ACE2 peptide inhibitor (30 mg/kg, IN, twice daily, Day 0, 1 8 hours apart).

Data set [7] has as its system SARS-CoV-2. Format: cell-based.
Data set [8] concerns SARS-CoV-2. Format: cell-based. The source holds these as a separate data set.
Data set [9] concerns the target ACE2 and SARS-CoV-2 Spike (Severe acute respiratory syndrome coronavirus 2, UniProt P0DTC2). Format: cell-based.
Data set [10] has as its target T2, SARS-CoV-2 spike protein (Severe acute respiratory syndrome coronavirus 2, UniProt P0DTC2).
T2 construct: spike protein 51 (Glu14-Ser680) containing a poly-histidine tag at the C-terminus; poly-histidine (C)
Format: cell-based.

Data set [11] concerns the target T3, LSD1 (Homo sapiens, UniProt O60341). The data set can be described thus: In vitro LSD1 activity assay (demethylation of ACE2 peptide at lysine 31). Format: biochemical.
In data set [12] the target is T3, LSD1.

As to “Myristyl-TGIRDRKKKNKARS-OH (SMILES CCCCCCCCCCCCCCN[C@H](C(=O)NCC(=O)N[C@H](C(=O)N[C@@H](CCCNC(=N)N)C(=O)N[C@@H](CC(=O)O)C(=O)N[C@@H](CCCNC(=N)N)C(=O)N[C@@H](CCCCN)C(=O)N[C@@H](CCCCN)C(=O)N[C@@H](CCCCN)C(=O)N[C@@H](CC(N)=O)C(=O)N[C@@H](CCCCN)C(=O)N[C@@H](C)C(=O)N[C@@H](CCCNC(=N)N)C(=O)N[C@@H](CO)C(=O)O)[C@@H](C)CC)[C@@H](C)O) [P604]”, in the data set on ACE2, LSD1, the “PCC(r) of LSD1 and ACE2 (co-localisation)” value is on record as “significantly abrogated”. Further, in the data set with ACE2, LSD1 (25 mM/50 mM), the “ACE2 expression on the cell surface” value was “de-stabilizes ACE2 expression on the cell surface” and the “cell surface LSD1 expression” value is listed as “reducing cell surface LSD1 expression”. Moreover, in data set [1], the “expression of Spike protein of SARS-CoV-2” value is “significantly inhibit and downregulate”; the “expression of host ACE2” value was “significantly inhibit and downregulate”; the “expression of nucleocapsid protein of SARS-CoV-2” value is “significantly inhibit and downregulate”. Moreover, the “inhibition of the ACE2-importin complex in vitro” value in the data set on ACE2-importin complex is given as “directly inhibiting the ACE2-importin complex”. Besides, in the data set with ACE2unmod and IMPα1, the “ACE2unmod-IMP1 interaction (DUOLINK)” value is “significantly all but abrogated”. Moreover, the “viral RNA in the lungs” value in the data set on SARS-CoV-2 [2] is “Significant reductions”. Further, the “decrease in viral load normalized to the vehicle group” value in the data set with SARS-CoV-2 [2] (ip, 100 mg/kg) turned out to be 96%. In addition, the “decrease in viral load normalized to the vehicle group” value with SARS-CoV-2 [2] (iv, 15 mg/kg) turned out to be 88%. The “lung infectious titers (TCID50 assay)” value in the data set on SARS-CoV-2 [3] is listed as “reduced”. Besides, in the data set on SARS-CoV-2 Spike protein [4], the “overall intensity of Spike protein signal in positive cells” value is given as “significantly reduced” and the “population of cells in bronchial lung sections positive for SARS-CoV-2 spike protein” value is listed as “significantly reduced”. In data set [5], the “changes in the bronchioles or vessels (H&E)” value was “minimal changes” and the “mean cumulative histopathological scores” value is given as “substantially lower than the vehicle group”. Further, in the data set with perforin and CD3, the “CD3+ cells expressing perforin in lung” value is listed as “induce more CD3+ cells to express perforin” and the “cells positive for perforin in lung” value was “significantly induce higher cells positive for perforin”. In addition, in data set [6], the “toxicity in animal safety studies” value is “minimal toxicity”.

Turning to STIEEQAKTFLDK [ACE2-02], in the data set on SARS-CoV-2 [7], the “decrease of viral RNA in infected cells” value was determined as 2 fold and the “reduction of infection (qRT-PCR) in cell culture supernatants” value came to 4.6 fold. For the same molecule, the “reduction in viral load (infectious viral titers, TCID50)” value in the data set with SARS-CoV-2 [8] is recorded as 3.2 fold. For the same molecule, the “interaction between ACE2 and spike protein (ACE2/spike complexes at the cell surface)” value in data set [9] is reported as “further disrupted”. The “inhibition of Spike protein binding to the cell surface” value with SARS-CoV-2 spike protein [10] is reported as “significantly inhibit”.

With “QAKTFLD{Lys(Me2)}FNHEAED (QAKTFLD[Lys(Me2)]FNHEAED) [ACE2me2]”, in the data set with LSD1 [11], the “de-methylation at lysine 31 by LSD1” value is reported as “efficiently de-methylated”.

With `NNCCc1ccccc1` [phenelzine], on LSD1 [12], the “effect on ACE2 transcription” value is on record as “minimal effect”; the “expression and co-localization of LSD1 with ACE2 and TMRPSS2” value is given as “abrogated”.
